Experimental findings from patent US20240166635A1, “AMINOHETEROARYL KINASE INHIBITORS” (Anrui Biomedical Technology (Guangzhou) Co.,Ltd., priority 2020, published 2024) are described below.

Common to all, as to type: biochemical
In one assay the target is CDK2/CyclinE1 (Homo sapiens (Human), UniProt P24941). In words: CDK2/CyclinE1 kinase inhibitory activity (Caliper mobility shift). The conditions noted are these: read-out: CDK2/Cyclin El IC50.
Another assay has as its target CDK9/CyclinT1 (Homo sapiens (Human), UniProt P50750). Put plainly: CDK9/CyclinT1 kinase inhibitory activity (Caliper mobility shift). As to conditions: read-out: CDK9/Cyclin T1 IC50.
A further assay has as its target CDK1/CyclinB (Homo sapiens (Human), UniProt P06493). Put plainly: CDK1/CyclinB kinase inhibitory activity (Caliper mobility shift). The conditions noted are these: read-out: CDK1/Cyclin B1 IC50.

Sequence of CDK9/CyclinT1 (P50750 whole entry): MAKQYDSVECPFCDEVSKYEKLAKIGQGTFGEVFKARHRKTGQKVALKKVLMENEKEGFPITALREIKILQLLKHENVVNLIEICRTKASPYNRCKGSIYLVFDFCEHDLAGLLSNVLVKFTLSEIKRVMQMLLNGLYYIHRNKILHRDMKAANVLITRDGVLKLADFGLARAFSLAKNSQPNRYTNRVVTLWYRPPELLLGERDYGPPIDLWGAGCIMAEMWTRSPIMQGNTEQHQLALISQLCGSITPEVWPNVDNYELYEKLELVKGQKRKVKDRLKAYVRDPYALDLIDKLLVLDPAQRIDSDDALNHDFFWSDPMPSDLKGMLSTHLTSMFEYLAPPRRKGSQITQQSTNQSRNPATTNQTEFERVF
Sequence of CDK9/CyclinT1 (O60563 whole entry partner): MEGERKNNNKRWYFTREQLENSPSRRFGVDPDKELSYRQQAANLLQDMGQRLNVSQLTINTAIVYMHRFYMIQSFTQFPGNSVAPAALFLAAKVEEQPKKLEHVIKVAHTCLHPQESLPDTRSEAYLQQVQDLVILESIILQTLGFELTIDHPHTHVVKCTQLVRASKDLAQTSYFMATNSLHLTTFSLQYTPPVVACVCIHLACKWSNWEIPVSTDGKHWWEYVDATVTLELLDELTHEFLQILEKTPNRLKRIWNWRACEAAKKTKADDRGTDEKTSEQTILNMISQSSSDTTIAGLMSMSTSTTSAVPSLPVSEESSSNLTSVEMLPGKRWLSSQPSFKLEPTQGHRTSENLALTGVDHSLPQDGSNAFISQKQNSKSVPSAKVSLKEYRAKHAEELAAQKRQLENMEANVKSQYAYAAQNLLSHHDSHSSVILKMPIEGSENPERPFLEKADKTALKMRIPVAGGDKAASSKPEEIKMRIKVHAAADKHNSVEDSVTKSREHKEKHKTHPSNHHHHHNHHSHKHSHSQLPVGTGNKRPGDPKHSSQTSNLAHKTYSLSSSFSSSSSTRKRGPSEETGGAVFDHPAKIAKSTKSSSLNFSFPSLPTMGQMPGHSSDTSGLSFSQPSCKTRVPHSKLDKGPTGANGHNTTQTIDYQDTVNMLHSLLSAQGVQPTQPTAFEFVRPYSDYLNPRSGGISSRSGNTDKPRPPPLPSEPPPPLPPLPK
Sequence of CDK1/CyclinB (P06493 whole entry): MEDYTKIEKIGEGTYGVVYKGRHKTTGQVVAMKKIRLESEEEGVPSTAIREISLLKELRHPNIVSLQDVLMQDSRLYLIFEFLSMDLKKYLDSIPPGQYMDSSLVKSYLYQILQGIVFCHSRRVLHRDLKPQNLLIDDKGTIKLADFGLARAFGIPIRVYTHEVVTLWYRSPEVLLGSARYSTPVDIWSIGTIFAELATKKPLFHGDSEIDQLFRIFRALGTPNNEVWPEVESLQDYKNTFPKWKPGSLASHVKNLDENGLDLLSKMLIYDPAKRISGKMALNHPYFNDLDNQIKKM
Sequence of CDK1/CyclinB (P14635 whole entry partner): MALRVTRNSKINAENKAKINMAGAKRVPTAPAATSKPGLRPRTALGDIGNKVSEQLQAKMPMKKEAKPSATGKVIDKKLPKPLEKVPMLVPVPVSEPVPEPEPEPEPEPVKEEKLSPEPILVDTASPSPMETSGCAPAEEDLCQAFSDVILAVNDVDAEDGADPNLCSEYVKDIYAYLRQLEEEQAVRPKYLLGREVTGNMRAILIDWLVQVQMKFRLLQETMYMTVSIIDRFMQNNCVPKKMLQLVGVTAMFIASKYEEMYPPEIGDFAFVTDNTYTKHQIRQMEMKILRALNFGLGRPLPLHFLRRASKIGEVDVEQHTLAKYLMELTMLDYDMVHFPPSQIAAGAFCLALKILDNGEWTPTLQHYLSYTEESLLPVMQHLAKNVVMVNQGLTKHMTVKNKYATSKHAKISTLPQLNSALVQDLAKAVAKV

Turning to `NS(=O)(=O)c1ccc(Nc2ncc(C(F)(F)F)c(OC3CCCCCC3O)n2)cc1` (single isomer, unassigned) [Example 118b], the IC50 is less than 10 nM on CDK2/CyclinE1, 10 to 100 nM at CDK9/CyclinT1 and 10 to 100 nM on CDK1/CyclinB.
On to `CS(=O)(=O)N1CCC(Nc2ncc(C(F)(F)F)c(OC3CCCCC3O)n2)CC1` (single isomer, unassigned) [Example 120b], for which the IC50 at CDK2/CyclinE1 was 10 to 100 nM; on CDK9/CyclinT1, no less than 1000 nM; on CDK1/CyclinB, 100 to 1000 nM.
For `CS(=O)(=O)N1CCC(Nc2ncc(C(F)(F)F)c(OC3CCCCCC3O)n2)CC1` (single isomer, unassigned) [Example 121b], in that order: 10 to 100 nM, 100 to 1000 nM and 100 to 1000 nM.
In the case of `NS(=O)(=O)N1CCC(Nc2ncc(C(F)(F)F)c(OC3CCCCCC3O)n2)CC1` (single isomer, unassigned) [Example 122a], the figures for the IC50 at CDK2/CyclinE1, on CDK9/CyclinT1 and at CDK1/CyclinB were less than 10 nM, 100 to 1000 nM and 100 to 1000 nM, respectively.
Take `CNS(=O)(=O)N1CCC(Nc2ncc(C(F)(F)F)c(OC3CCCCCC3O)n2)CC1` (single isomer, unassigned) [Example 123a]: the IC50 at CDK2/CyclinE1 was 10 to 100 nM; at CDK9/CyclinT1 it was 100 to 1000 nM; at CDK1/CyclinB, 100 to 1000 nM.
As for `O=S(=O)(NC1CCOCC1)c1ccc(Nc2ncc(Cl)c(O[C@@H]3CCC[C@@H]3O)n2)cc1` (single isomer, unassigned) [Example 130b, cis-4-((5-chloro-4-((2-hydroxycyclopentyl)oxy)pyrimidin-2-yl)amino)-N-(tetrahydro-2H-pyran-4-yl)benzenesulfonamide], the values for the IC50 at CDK2/CyclinE1, on CDK9/CyclinT1 and on CDK1/CyclinB were 10 to 100 nM, 100 to 1000 nM and 10 to 100 nM, respectively.
Regarding `CC1(NS(=O)(=O)c2ccc(Nc3ncc(Br)c(O[C@@H]4CCC[C@@H]4O)n3)cc2)COC1` (single isomer, unassigned) [Example 131b, cis-4-((5-bromo-4-((2-hydroxycyclopentyl)oxy)pyrimidin-2-yl)amino)-N-(3-methyloxetan-3-yl)benzenesulfonamide], the IC50 is less than 10 nM at CDK2/CyclinE1, 100 to 1000 nM on CDK9/CyclinT1 and 100 to 1000 nM on CDK1/CyclinB.
As for `Cc1cnc(Nc2ccc(S(N)(=O)=O)cc2)nc1O[C@@H]1CCC[C@@H]1O` (single isomer, unassigned) [Example 132b, cis-4-((4-((2-hydroxycyclopentyl)oxy)-5-methylpyrimidin-2-yl)amino)benzenesulfonamide], the IC50 on CDK2/CyclinE1 fell in the range of 10 to 100 nM; on CDK9/CyclinT1, 100 to 1000 nM; at CDK1/CyclinB it was 100 to 1000 nM.
`CCc1cnc(Nc2ccc(S(N)(=O)=O)cc2)nc1O[C@@H]1CCC[C@@H]1O` (single isomer, unassigned) [Example 133b, cis-4-((5-ethyl-4-((2-hydroxycyclopentyl)oxy)pyrimidin-2-yl)amino)benzenesulfonamide]: the IC50 at CDK2/CyclinE1 was less than 10 nM; on CDK9/CyclinT1, 100 to 1000 nM; on CDK1/CyclinB, 100 to 1000 nM.
On to `CC(C)NS(=O)(=O)c1ccc(Nc2ncc(C3CC3)c(O[C@@H]3CCC[C@@H]3O)n2)cc1` (single isomer, unassigned) [Example 134b, cis-4-((5-cyclopropyl-4-((2-hydroxycyclopentyl)oxy)pyrimidin-2-yl)amino)-N-isopropylbenzenesulfonamide], for which the figures for the IC50 at CDK2/CyclinE1, on CDK9/CyclinT1 and on CDK1/CyclinB were 10 to 100 nM, 100 to 1000 nM and 100 to 1000 nM, respectively.
`NS(=O)(=O)c1ccc(Nc2ncc(Cl)c(OC3CCCC3O)n2)cc1` (single isomer, unassigned) [Example 136b]: the IC50 on CDK2/CyclinE1 was less than 10 nM; on CDK9/CyclinT1, 100 to 1000 nM; on CDK1/CyclinB it was 10 to 100 nM.
For `CNS(=O)(=O)c1ccc(Nc2ncc(Cl)c(OC3CCCC3O)n2)cc1` (single isomer, unassigned) [Example 137b], in that order: less than 10 nM, 100 to 1000 nM and 10 to 100 nM.
For `CC(C)NS(=O)(=O)c1ccc(Nc2ncc(Cl)c(OC3CCCC3O)n2)cc1` (single isomer, unassigned) [Example 138b], in that order: less than 10 nM, 100 to 1000 nM and 10 to 100 nM.
